According to US20240277772A1, “COMBINED ADMINISTRATION COMPOSITION FOR PREVENTING OR TREATING ATOPIC DERMATITIS, COMPRISING FUNCTION-ENHANCED STEM CELLS AND REGULATORY T CELLS” (SCM LIFESCIENCE CO., LTD., priority 2021, published 2024):

System: mesenchymal stem cells
Assay: qRT-PCR of IDO and TSG6 expression in mesenchymal stem cells treated with priming candidates
Type: cell-based
Conditions: for expression of IDO / expression of TSG6: Table 1 compositions, 24 hours, FIG. 4, compared to untreated control or to single substances; for lowest effective concentration capable of inducing significantly increased expression of both TSG6 and IDO: stem cells treated 24 hours, TNF-α and IFN-γ at 5, 10, 20 ng/ml, IFN-α at 10, 20, 40 ng/ml, FIGS. 1-3
Experimental: In a 37° C. and 5% CO2 incubator, mesenchymal stem cells in a storage state (LN2 tank storage) were thawed and cultured, and at this time, the cells were cultured in a medium (DMEM, alpha-MEM) containing 10% FBS or 4% hPL until proliferated to a cell confluence of about 80%. The cultured mesenchymal stem cells were seeded in a 100 mm dish and treated with candidate substances for enhancing the functions of the mesenchymal stem cells for 24 hours, and then the concentrations of primary candidate substances for enhancing the functions were set.
TNF-α, IFN-γ, and IFN-α were selected as the primary candidate substances, and in order to confirm the lowest effective concentration capable of increasing the expression of TNFα-stimulated gene-6 (TSG6) and indoleamine 2,3-dioxygenase (IDO) to confirm the enhanced functions, the stem cells were treated with 5, 10, and 20 ng/ml of TNF-α, 5, 10, and 20 ng/ml of IFN-γ, and 10, 20, and 40 ng/ml of IFN-α, respectively, and changes in expression of TSG6 and IDO were confirmed.
The IDO was known as an immunomodulatory factor that inhibited the proliferation of immune cells such as T cells by converting tryptophan, which was essential for T cell proliferation, into kynurenine, and the TSG6 was known as an anti-inflammatory regulator secreted from mesenchymal stem cells. After culturing the stem cells, total RNA was isolated using TRIzol (Invitrogen), and cDNA was synthesized from total RNA using PrimeScript™RT reagent Kit with gDNA Eraser (TaKaRa), and qRT-PCR was performed. The results of TSG6 and IDO according to the concentration of each candidate substance were illustrated in FIGS. 1, 2 and 3.
Through Example 1, in order to search for more function-enhanced compositions based on the candidate substances and lowest effective concentrations identified to induce the enhanced functions of stem cells, selected candidate substances and combined concentrations thereof were set as shown in Table 1. Mesenchymal stem cells were treated with the candidate combinations described in Table 1 below for 24 hours, and the stem cells were cultured as in Example 1, and then total RNA was isolated using TRIzol (Invitrogen). Thereafter, qRT-PCR was performed by synthesizing cDNA from total RNA using the PrimeScript™RT reagent Kit with gDNA Eraser (TaKaRa).
Vitamins were known to improve the proliferative ability of stem cells and maintain the stemness of stem cells when added during a stem cell culture process. Accordingly, various vitamins were treated in the stem cell culture process, and experiments were performed to confirm whether or not vitamins could achieve anti-inflammatory and immune function enhancing effects of stem cells. Specifically, the stem cells were treated with various types of vitamins shown in Table 2 below according to the method described in Example 1, and the results of confirming changes in expression of IDO and TSG6 according to treatment with each candidate substance were illustrated in FIG. 5.

IFN-α
expression of IDO: increased expression | expression of TSG6: increased expression | lowest effective concentration capable of inducing significantly increased expression of both TSG6 and IDO: 20 ng/mL

IFN-γ [priming factor for stem cells, 10 ng/ml]
expression of IDO: increased expression | expression of TSG6: increased expression | lowest effective concentration capable of inducing significantly increased expression of both TSG6 and IDO: 10 ng/mL

TNF-α
expression of IDO: increased expression | expression of TSG6: increased expression | lowest effective concentration capable of inducing significantly increased expression of both TSG6 and IDO: 10 ng/mL
